This note sets out measurements from ChEMBL document CHEMBL1201862, “PubChem BioAssay data set” (2004).

The target of assay [1] is T1, Sentrin-specific protease 7 (Homo sapiens, UniProt Q9BQF6).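 Further: Luminescence-based dose-response confirmation of ultra-high-throughput screening hits, measuring inhibition of SENP7.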
T1 sequence (Q9BQF6 whole entry): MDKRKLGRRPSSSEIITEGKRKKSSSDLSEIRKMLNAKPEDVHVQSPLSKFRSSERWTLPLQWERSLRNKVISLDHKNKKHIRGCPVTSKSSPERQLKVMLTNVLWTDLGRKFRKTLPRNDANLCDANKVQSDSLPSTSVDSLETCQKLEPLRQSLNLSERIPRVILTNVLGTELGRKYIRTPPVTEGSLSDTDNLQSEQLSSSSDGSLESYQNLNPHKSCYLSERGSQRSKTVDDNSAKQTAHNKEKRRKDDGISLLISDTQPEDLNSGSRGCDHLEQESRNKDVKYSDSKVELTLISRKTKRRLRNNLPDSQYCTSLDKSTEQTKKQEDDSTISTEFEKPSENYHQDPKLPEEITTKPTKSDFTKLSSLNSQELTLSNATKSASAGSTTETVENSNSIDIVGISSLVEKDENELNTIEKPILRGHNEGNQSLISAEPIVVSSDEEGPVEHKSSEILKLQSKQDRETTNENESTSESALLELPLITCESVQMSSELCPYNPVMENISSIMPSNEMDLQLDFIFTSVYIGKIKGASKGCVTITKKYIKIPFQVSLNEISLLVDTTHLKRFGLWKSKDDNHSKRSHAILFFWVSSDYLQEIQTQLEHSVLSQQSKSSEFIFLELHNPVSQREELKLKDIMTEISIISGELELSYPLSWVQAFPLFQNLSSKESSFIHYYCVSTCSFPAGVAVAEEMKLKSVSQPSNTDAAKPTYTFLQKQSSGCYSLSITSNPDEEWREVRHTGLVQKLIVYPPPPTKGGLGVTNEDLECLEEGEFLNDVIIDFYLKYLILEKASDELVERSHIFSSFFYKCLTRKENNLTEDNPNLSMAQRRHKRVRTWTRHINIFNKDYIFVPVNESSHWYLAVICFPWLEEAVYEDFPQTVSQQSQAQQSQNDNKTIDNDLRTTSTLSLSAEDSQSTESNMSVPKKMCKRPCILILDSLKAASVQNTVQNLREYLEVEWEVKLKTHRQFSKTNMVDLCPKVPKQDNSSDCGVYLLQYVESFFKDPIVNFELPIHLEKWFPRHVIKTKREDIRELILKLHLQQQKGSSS
Format: functional.

The next assay deals with T2, Caspase-3 (Homo sapiens, UniProt P42574).
T2 sequence (P42574 whole entry): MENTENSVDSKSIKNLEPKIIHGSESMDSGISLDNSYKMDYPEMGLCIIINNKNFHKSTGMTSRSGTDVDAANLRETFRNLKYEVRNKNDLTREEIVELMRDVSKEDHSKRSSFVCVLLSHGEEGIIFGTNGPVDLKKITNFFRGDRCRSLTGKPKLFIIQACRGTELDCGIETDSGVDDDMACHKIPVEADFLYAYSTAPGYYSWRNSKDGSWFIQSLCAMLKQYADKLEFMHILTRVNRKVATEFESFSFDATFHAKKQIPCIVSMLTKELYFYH
It is filed as functional.

For assay [2], the target named is T3, Tyrosine-protein phosphatase non-receptor type 22 (Homo sapiens, UniProt Q9Y2R2).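 Further: confirmatory dose-response retest of primary uHTS hits for inhibition of LYP phosphatase, measured by a fluorescence intensity read-out.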
T3 sequence (Q9Y2R2 whole entry): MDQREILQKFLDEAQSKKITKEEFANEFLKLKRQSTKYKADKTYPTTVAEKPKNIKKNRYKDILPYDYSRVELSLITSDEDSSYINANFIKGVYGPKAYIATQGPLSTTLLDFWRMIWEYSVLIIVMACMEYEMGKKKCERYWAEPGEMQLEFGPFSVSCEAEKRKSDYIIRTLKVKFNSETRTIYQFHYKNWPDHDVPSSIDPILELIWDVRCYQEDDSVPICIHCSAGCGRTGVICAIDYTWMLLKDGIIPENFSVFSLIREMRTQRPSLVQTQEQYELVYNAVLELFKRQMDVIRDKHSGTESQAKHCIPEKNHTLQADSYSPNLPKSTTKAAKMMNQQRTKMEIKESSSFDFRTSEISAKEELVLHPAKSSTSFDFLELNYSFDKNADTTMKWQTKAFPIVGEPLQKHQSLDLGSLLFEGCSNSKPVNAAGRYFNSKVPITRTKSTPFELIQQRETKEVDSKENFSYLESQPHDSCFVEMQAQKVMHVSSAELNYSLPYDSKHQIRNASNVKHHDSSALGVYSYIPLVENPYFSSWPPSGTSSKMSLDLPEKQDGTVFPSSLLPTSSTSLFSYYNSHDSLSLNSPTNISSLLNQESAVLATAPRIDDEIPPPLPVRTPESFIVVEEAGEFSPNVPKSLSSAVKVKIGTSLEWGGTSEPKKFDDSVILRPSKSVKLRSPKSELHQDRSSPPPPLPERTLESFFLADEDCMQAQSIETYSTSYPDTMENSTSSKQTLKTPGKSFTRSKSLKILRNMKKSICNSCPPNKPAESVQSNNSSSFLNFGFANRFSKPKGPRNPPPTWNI
It is filed as functional.

Assay [3] deals with T4, Small ubiquitin-related modifier 2 (Homo sapiens, UniProt P61956). Put plainly: disruption of SUMO2 interaction with SIM peptide – biochemical, fluorescence polarization, uHTS hits, selectivity assay for SUMO1 interaction inhibitor project, dose response (AID 624385). It is filed as functional. Conditions: read-out: IC50_Mean. (Fluorescence polarisation rises when a labelled molecule tumbles more slowly, as on binding a larger partner.)
T4 sequence (P61956 whole entry): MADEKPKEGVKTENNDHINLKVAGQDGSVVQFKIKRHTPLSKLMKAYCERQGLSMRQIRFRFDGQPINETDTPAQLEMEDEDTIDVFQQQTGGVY

Assay [4] deals with T4, Small ubiquitin-related modifier 2. Briefly: SUMO2 binding disruption by SUMO1 hits – biochemical, FRET, human SUMO2, uHTS hits, selectivity assay for SUMO1 interaction inhibitor project, dose response (AID 624384). It is filed as functional. Conditions: read-out: IC50_Mean.
Assay [5] has as its system Streptococcus sp. 'group A'. Put plainly: Streptococcus pyogenes SK(-)GAS viability under kanamycin – luminescence, BacTiterGlo, confirmation, counter-screen for streptokinase expression inhibitor project, dose response (AID 1900). It is filed as functional, organism-based.

Molecules are shown by their SMILES. Calls of active or inactive are those of the source.

With `Cc1oc2c(c1C(=O)c1ccccc1)C(=O)C(=O)c1ccccc1-2`, the IC50 is 9.15 µM (active) in assay [1] and 29.3 µM (active) on Caspase-3.

On to `O=C(O)COc1ccc(/C=N/NC(=O)c2ccc(-c3csc(Nc4ccc(Cl)cc4)n3)cc2)cc1`, for which the IC50 in assay [2] was < 1.24 µM (active).

Regarding `COc1ccc(C(=O)Nc2nc3c(s2)Cc2cc(OC)ccc2-3)cc1`, the figures for the IC50 (in assay [1]; on Caspase-3) were 2.36 µM (active) and 3.45 µM (active), respectively.

Consider `Nc1ccc2nc3c(O)nc(S)nc3nc2c1`, for which the IC50 in assay [2] is > 79.4 µM (inactive); in assay [3] it was 55.2 µM (inactive); in assay [4] it was 0.584 µM (active).

Turning to `CCN1/C(=C/c2ccc3cc(C)ccc3[n+]2CC)Sc2cc(C)c(C)cc21`, in assay [5], the EC50 was 8.22 µM (active).

As for `CSc1ccc(C=NNc2ccc(S(=O)(=O)Nc3ccccc3C(=O)O)cc2[N+](=O)[O-])cc1`, the results for the IC50 in assay [3] and in assay [4] were 2.38 µM (active) and 53.1 µM (inactive), respectively.

Take `CC(/C=C1\SC(=S)N(NS(=O)(=O)c2ccccc2)C1=O)=C\c1ccccc1`: the IC50 in assay [1] is 30.7 µM (active); at Caspase-3, 7.87 µM (active). The concentration giving a half-maximal response (EC50) in assay [5] is 1.94 µM (active).

As a reminder, the EC50 is the concentration at which the effect is half-maximal.
